Data reported in US20090209525A1, “ENABLING METHODS TO IDENTIFY ALLOSTERIC MODULATORS OF RECEPTOR ACTIVITY” (priority 2006, published 2009).
Substitutions are numbered along the chain they refer to. Like-named read-outs stand apart in the source and are kept apart here.

Assays:
M1 W101A receptor [1] = target: T1, M1 W101A receptor (Rattus norvegicus, UniProt P08482, W101A); experiment: R-SAT HTS on M1 W101A receptor; assay type: cell-based; conditions: compound at 300 nM, triplicate retest, activity over basal cellular response
T1 construct: expressed in transfected cells
T1 sequence (P08482 1-460 W101A): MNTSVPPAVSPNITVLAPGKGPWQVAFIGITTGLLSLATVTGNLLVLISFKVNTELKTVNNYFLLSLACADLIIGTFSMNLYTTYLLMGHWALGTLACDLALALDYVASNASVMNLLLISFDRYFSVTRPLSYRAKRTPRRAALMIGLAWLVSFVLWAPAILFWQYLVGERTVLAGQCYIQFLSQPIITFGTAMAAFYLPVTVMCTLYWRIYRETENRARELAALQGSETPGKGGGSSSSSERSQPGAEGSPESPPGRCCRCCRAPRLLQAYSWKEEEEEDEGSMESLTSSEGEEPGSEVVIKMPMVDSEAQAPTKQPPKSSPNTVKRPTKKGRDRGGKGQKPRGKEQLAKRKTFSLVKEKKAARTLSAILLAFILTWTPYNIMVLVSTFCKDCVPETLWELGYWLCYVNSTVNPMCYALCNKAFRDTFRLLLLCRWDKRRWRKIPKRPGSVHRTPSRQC

M1 W101A receptor [2] = target: T1, M1 W101A receptor; experiment: R-SAT HTS on M1 W101A receptor; assay type: cell-based; conditions: compound at 3 μM, triplicate retest, activity over basal cellular response
Description: (§1) NIH-3T3 cells were grown in 96-well tissue culture plates to 70 to 80% confluence in Dulbecco's modified essential media (DMEM) supplemented with 100 units/ml penicillin, 100 micrograms/ml streptomycin, 0.3 mg/ml L-glutamine (1% PSG, GIBCO) and 10% calf serum (Sigma-Aldrich). Cells were transfected for 18 h with DMEM containing 0.08 micrograms/ml receptor DNA and 0.3 micrograms/ml pSI-Bgal (Promega, Madison Wis.), 0.5% v/v Polyfect (Qiagen, Valencia Calif.). Medium was replaced with DMEM containing 1% PSG, 0.5% calf serum, 2% cyto-sf3 (Kemp Biotechnologies, Frederick, Md.), and varying concentrations of ligand. […] Cells were grown in a humidified atmosphere with 5% ambient CO2 for 5 days. Medium was removed from the plates, and beta-galactosidase activity was measured by the addition of o-nitrophenyl -d-galactopyranoside in phosphate-buffered saline with 5% Nonidet P-40.
Cells were contacted with over 280,000 compounds at a concentration of 3 μM.

rat M1 Y381A receptor = target: T2, rat M1 Y381A receptor (Rattus norvegicus, UniProt P08482, Y381A); experiment: R-SAT functional assay, Y381A mutant; assay type: cell-based
T2 construct: expressed in transfected cells; host or cells: NIH-3T3
T2 sequence (P08482 1-460 Y381A): T1 sequence (P08482 1-460 W101A) with A101W, Y381A
Description: (§2) Cells are co-transfected for 18 h with DMEM containing 0.08 micrograms/ml of an expression vector for the expression of the mutant receptor and 0.3 micrograms/ml pSI-Bgal (Promega, Madison Wis.), and 0.5% v/v Polyfect (Qiagen, Valencia Calif.), as recommended by the manufacturer. On day three, the medium is replaced with DMEM containing 1% PSG, 0.5% calf serum, 2% cyto-sf3 (Kemp Biotechnologies, Frederick, Md.), and varying concentrations of the compounds to be tested. Cells are grown in a humidified atmosphere with 5% ambient CO2 for 5 days. The media is removed from the plates, and beta-galactosidase activity is measured by the addition of o-nitrophenyl -d-galactopyranoside in phosphate-buffered saline with 5% Nonidet P-40. […] The following equation is fitted to the data using GraphPad Prism software (San Diego, Calif.):
as §1
(§3) Receptor Selection and Amplification (R-SAT™) Assays: R-SAT™ functional assays were carried out as follows. NIH-3T3 cells were grown in 96-well tissue culture plates to 70 to 80% confluence in Dulbecco's modified essential media (DMEM) supplemented with 100 units/ml penicillin, 100 micrograms/ml streptomycin, 0.3 mg/ml L-glutamine (1% PSG, GIBCO) and 10% calf serum (Sigma-Aldrich). Cells were transfected for 18 h with DMEM containing 0.08 micrograms/ml receptor DNA and 0.3 micrograms/ml pSI-Bgal (Promega, Madison Wis.), 0.5% v/v Polyfect (Qiagen, Valencia Calif.). The transfected cells were frozen away. Cells were thawed and added to 96 well plates with DMEM containing 1% PSG, 0.5% calf serum, 2% cyto-sf3 (Kemp Biotechnologies, Frederick, Md.), and varying concentrations of ligand.
(§4) In an effort to further characterize monoamine modulators, we used a panel of mutant muscarininc M1 receptors to analyze the activity and potency of orthosteric modulators and various allosteric modulators at those receptors.

[3] = target: T3, rat M1 wild-type receptors (Rattus norvegicus, UniProt P08482); experiment: R-SAT functional assay, wild-type receptor; assay type: cell-based
T3 construct: expressed in transfected cells
T3 sequence (P08482 1-460): T1 sequence (P08482 1-460 W101A) with A101W
Description: as §2, §1, §3, §4

M1 Y381A receptor = target: T4, M1 Y381A receptor (Rattus norvegicus, UniProt P08482, Y381A); experiment: R-SAT antagonism of muscarinic agonists, Y381A; assay type: cell-based; conditions: M1 YS81A as printed; maximal inhibition of NDMC (3 μM) response
T4 construct: expressed in transfected cells; host or cells: NIH-3T3
T4 sequence (P08482 1-460 Y381A): T1 sequence (P08482 1-460 W101A) with A101W, Y381A
Description: as §3

rat M1 W101A receptor = target: T5, rat M1 W101A receptor (Rattus norvegicus, UniProt P08482, W101A); experiment: R-SAT functional assay, W101A mutant; assay type: cell-based; conditions: M1 W101A
T5 construct: expressed in transfected cells
T5 sequence (P08482 1-460 W101A): T1 sequence (P08482 1-460 W101A)
Description: as §2, §1, §3, §4

M1 Y381 mutant receptor = target: T6, M1 Y381 mutant receptor (Rattus norvegicus, UniProt P08482, Y381A); conditions: result in words; FIGS. 8A-8C
T6 sequence (P08482 1-460 Y381A): T1 sequence (P08482 1-460 W101A) with A101W, Y381A

[4] = Table 10, M1 Y381A, maximum response relative to AC-42
[5] = Table 10, M1 Wild-Type, maximum response relative to carbachol
[6] = Table 4, maximum response relative to xanomeline
[7] = Table 4, M1 Y381A, maximum response relative to xanomeline
[8] = Table 4, M1 wild type, maximum response relative to xanomeline

CCCOC1CCN(C[C@@H](C)CN2C(=O)COc3ccccc32)CC1.O=C(O)C(=O)O
300 nM Avg (M1 W101A receptor [1]): 4.14 | 3 μM Avg. (M1 W101A receptor [2]): 4.63

CCCOC1CCN(CCCn2c(=O)ccc3ccccc32)CC1
300 nM Avg (M1 W101A receptor [1]): 3.90 | 3 μM Avg. (M1 W101A receptor [2]): 4.65

CCCOC1CCN(C[C@@H](C)CN2C(=O)COc3ccccc32)CC1
300 nM Avg (M1 W101A receptor [1]): 4.15 | 3 μM Avg. (M1 W101A receptor [2]): 4.51

CCCCC1CCN(C[C@@H](C)Cn2c(=O)ccc3ccccc32)CC1.O=C(O)C(O)C(O)C(=O)O
300 nM Avg (M1 W101A receptor [1]): 4.34 | 3 μM Avg. (M1 W101A receptor [2]): 4.50

CCCOC1CCN(C[C@@H](C)CN2C(=O)CCc3ccccc32)CC1.O=C(O)C(=O)O
300 nM Avg (M1 W101A receptor [1]): 4.11 | 3 μM Avg. (M1 W101A receptor [2]): 4.44

CCCOC1CCN(C[C@@H](C)Cn2c(=O)ccc3ccccc32)CC1.O=C(O)C(=O)O
300 nM Avg (M1 W101A receptor [1]): 4.29 | 3 μM Avg. (M1 W101A receptor [2]): 4.37

CCCCC1CCN(CCCN2C(=O)CCc3cc(OC)ccc32)CC1.O=C(O)C(=O)O
300 nM Avg (M1 W101A receptor [1]): 3.32 | 3 μM Avg. (M1 W101A receptor [2]): 4.19

CCCC=C1CCN(C[C@@H](C)CN2C(=O)COc3ccc(F)cc32)CC1.O=C(O)C(=O)O
300 nM Avg (M1 W101A receptor [1]): 3.81 | 3 μM Avg. (M1 W101A receptor [2]): 4.17

CCCCC1CCN(CCCn2c(=O)ccc3cc(F)ccc32)CC1
300 nM Avg (M1 W101A receptor [1]): 3.81 | 3 μM Avg. (M1 W101A receptor [2]): 3.85

CCCCC1CCN(C[C@@H](C)CN2C(=O)CCc3ccccc32)CC1.O=C(O)C(=O)O
300 nM Avg (M1 W101A receptor [1]): 3.93 | 3 μM Avg. (M1 W101A receptor [2]): 3.74

CCCCC1CCN(CCn2c(=O)[nH]c3ccccc32)CC1
300 nM Avg (M1 W101A receptor [1]): 3.26 | 3 μM Avg. (M1 W101A receptor [2]): 3.67

CCCCC1CCN(CCCN2C(=O)CCc3ccccc32)CC1.O=C(O)C(=O)O
300 nM Avg (M1 W101A receptor [1]): 3.13 | 3 μM Avg. (M1 W101A receptor [2]): 3.60

CCCCC1CCN(C[C@@H](C)CN2C(=O)COc3ccccc32)CC1.O=C(O)C(=O)O
300 nM Avg (M1 W101A receptor [1]): 4.16 | 3 μM Avg. (M1 W101A receptor [2]): 3.55

COCCC1CCN(CCCn2c(=O)sc3ccccc32)CC1.O=C(O)C(=O)O
300 nM Avg (M1 W101A receptor [1]): 2.87 | 3 μM Avg. (M1 W101A receptor [2]): 3.35

CCCCC1CCN(CCCN2C(=O)CSc3ccccc32)CC1.O=C(O)C(=O)O
300 nM Avg (M1 W101A receptor [1]): 3.30 | 3 μM Avg. (M1 W101A receptor [2]): 3.34

CCCCC1CCN(CCCN2C(=O)COc3ccccc32)CC1.O=C(O)C(=O)O
300 nM Avg (M1 W101A receptor [1]): 3.86 | 3 μM Avg. (M1 W101A receptor [2]): 3.23

CC(C)COc1ccc(CC(=O)N(Cc2ccc(F)cc2)C2CCN(CCCN3C(=O)OC[C@@H]3C(C)C)CC2)cc1.O=C(O)C(=O)O
300 nM Avg (M1 W101A receptor [1]): 2.58 | 3 μM Avg. (M1 W101A receptor [2]): 3.18

CCOCCC1CCN(CCCn2c(=O)[nH]c3ccccc32)CC1.O=C(O)C(F)(F)F
300 nM Avg (M1 W101A receptor [1]): 2.70 | 3 μM Avg. (M1 W101A receptor [2]): 2.83

CCCCC1CCN(CCCn2c(=O)oc3c(Cl)cc(Cl)c(Cl)c32)CC1.O=C(O)C(=O)O
300 nM Avg (M1 W101A receptor [1]): 2.36 | 3 μM Avg. (M1 W101A receptor [2]): 2.60

CCCCC1CCN(CCCN2C(=O)COc3ccc(C(C)=O)cc32)CC1
300 nM Avg (M1 W101A receptor [1]): 2.86 | 3 μM Avg. (M1 W101A receptor [2]): 2.41

CN1CCN(C2=Nc3ccccc3Oc3ccc(Cl)cc32)CC1.O=C(O)CCC(=O)O [Loxapine]
EC50 (rat M1 Y381A receptor; Table 10, M1 Y381A, NA = non-active, read-out: pEC50 (converted)): 1260 nM | % Eff (rat M1 Y381A receptor; [4]): 165% | % Eff [3, 5]: 3%

C[N+]1(C)[C@@H]2C[C@@H](OC(=O)[C@H](CO)c3ccccc3)C[C@H]1[C@@H]1O[C@@H]12 [NMS]
inhib (M1 Y381A receptor): 36%

O=C1CCCN1CC#CCN1CCCC1 [Oxotremorine]
% Eff (rat M1 W101A receptor; [6]): 87% | % Eff (rat M1 W101A receptor; Table 10, maximum response relative to AC-42): 120% | EC50 (rat M1 W101A receptor; pEC50, Table 4): 3160 nM | EC50 (rat M1 W101A receptor; pEC50, Table 10): 2510 nM | EC50 (rat M1 Y381A receptor): 3980 nM | % Eff (rat M1 Y381A receptor; [7]): 8% | % Eff (rat M1 Y381A receptor; [4]): 23% | % Eff [3, 8]: 91% | % Eff [3, 5]: 91% | EC50 ([3]; pEC50, Table 4, M1 wild type): 79.4 nM | EC50 ([3]; pEC50, Table 10, M1 Wild-Type, NA = non-active): 31.6 nM

CCCCCCOc1nsnc1C1=CCCN(C)C1 [Xanomeline]
% Eff (rat M1 W101A receptor; [6]): 106% | % Eff (rat M1 Y381A receptor; [7]): 100% | % Eff [3, 8]: 100%

C[N+]1(C)[C@@H]2CC(OC(=O)[C@H](CO)c3ccccc3)C[C@H]1[C@@H]1O[C@@H]12 (some centres unmarked) [^3H-NMS, 1-[N-methyl-^3H]Scopolamine methyl chloride]
binding of ^3H-NMS to receptor (M1 Y381 mutant receptor): not to the Y381 mutant receptor
